In patent US6723753B2, “Substituted n-benzyl-n-phenyl aminoalcohol compounds useful for inhibiting cholesteryl ester transfer protein activity” (Pharmacia Corporation, priority 2002, dated 2004):

Legend:
[1] = molecular target: T1, CETP (Homo sapiens, UniProt P11597); assay: Assay of CETP Inhibition using Purified Components (Reconstituted Buffer Assay); format: biochemical; parameters: made in house; host or cells: CHO cells (serum-free conditioned medium); details: transfer of [3H]CE from HDL to LDL
T1 sequence (P11597 18-493): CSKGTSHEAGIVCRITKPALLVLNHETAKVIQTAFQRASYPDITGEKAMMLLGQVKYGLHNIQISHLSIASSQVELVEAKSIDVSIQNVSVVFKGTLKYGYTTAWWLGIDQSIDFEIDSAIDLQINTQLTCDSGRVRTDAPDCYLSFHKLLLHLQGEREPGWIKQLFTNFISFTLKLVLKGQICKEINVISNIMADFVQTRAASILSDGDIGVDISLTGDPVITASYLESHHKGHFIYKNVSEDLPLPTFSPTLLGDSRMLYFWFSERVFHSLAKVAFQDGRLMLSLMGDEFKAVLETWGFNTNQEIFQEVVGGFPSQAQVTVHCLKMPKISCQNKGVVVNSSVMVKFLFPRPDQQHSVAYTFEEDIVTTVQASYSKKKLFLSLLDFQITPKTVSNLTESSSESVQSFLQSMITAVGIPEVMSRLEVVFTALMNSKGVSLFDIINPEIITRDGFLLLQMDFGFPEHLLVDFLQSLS
Method in brief: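 Transfer of radiolabeled cholesteryl ester from HDL to LDL was run for 2 h at 37 °C in pH 7.4 Tris buffer with 1% BSA, using purified CHO-expressed human CETP. Precipitated LDL radioactivity, measured by scintillation after dextran sulfate/MgCl2 precipitation and filtration, yielded the IC50.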

[2] = molecular target: T1, CETP; assay: Assay of CETP Inhibition in Human Plasma; format: biochemical; parameters: Blood was obtained from healthy volunteers, recruited from the personnel of Monsanto Company; from tissue; host or cells: human EDTA plasma pool from healthy volunteers; details: transfer of [3H]CE from HDL to VLDL and LDL
Protocol: Assay of CETP Inhibition in Human Plasma
Blood was obtained from healthy volunteers, recruited from the personnel of Monsanto Company, Saint Louis, Mo. Blood was collected in tubes containing EDTA (EDTA plasma pool). The EDTA human plasma pool, previously stored at −20° C., was thawed at room temperature and centrifuged for 5 minutes to remove any particulate matter. […] Equal volumes (396 μL) of the plasma containing the [^3H]CE-HDL were added by pipette into micro tubes (Titertube®, Bio-Rad laboratories, Hercules, Calif.). Inhibitor compounds, dissolved as 20-50 mM stock solutions in DMSO, were serially diluted in DMSO (or an alternative solvent in some cases, such as dimethylformamide or ethanol). Four μL of each of the serial dilutions of inhibitor compounds or DMSO alone were then added to each of the tubes containing plasma (396 μL). After mixing, triplicate aliquots (100 μL) from each plasma tube were then transferred to wells of 96-well round-bottomed polystyrene microtiter plates (Corning, Corning, N.Y.). Plates were sealed with plastic film and incubated at 37° C. for 4 hours. “Test” samples contained plasma with dilutions of inhibitor compounds. “Control” samples contained plasma with DMSO diluted to the same concentration as the test samples, but without inhibitor. “Blank” samples were prepared as “control” samples, but were left in the micro tubes at 4° C. for the 4 hour incubation and were then added to the microtiter wells at the end of the incubation period. VDL and LDL were precipitated by the addition of 10 μL of precipitating reagent (1% (w/v) dextran sulfate (Dextralip50)/0.5 M magnesium chloride, pH 7.4) to all wells. The wells were mixed on a plate mixer and then incubated at ambient temperature for 10 min. The plates were then centrifuged at 1000× g for 30 min at 10° C. The supernatants (50 μL) from each well were then transferred to Picoplate™ 96 plate wells (Packard, Meriden, Conn.) containing Microscint™-40 (Packard, Meriden, Conn.). The plates were heat-sealed (TopSeal™-P, Packard, Meriden, Conn.) according to the manufacturer's directions and mixed for 30 min. Radioactivity was measured on a microplate scintillation counter (TopCount, Packard, Meriden, Conn.). The maximum percentage transfer in the control wells (% transfer) was determined using the following equation: [formula]
The percentage of transfer relative to the control (% control) was determined in the wells containing inhibitor compounds was determined as follows: [formula]
IC50 values were then calculated from plots of % control versus concentration of inhibitor compound.

[3] = Inhibition of CETP activity in reconstituted buffer assay, read-out: IC50
[4] = Inhibition of CETP activity in human plasma assay, read-out: IC50
[5] = IC50, Inhibition of CETP activity in reconstituted buffer assay

Structure (SMILES)	IC50 [1, 3]	IC50 [2, 4]	IC50 [1, 5]	IC50 ([2]; IC50, Inhibition of CETP activity in human plasma assay)
OC(COc1cccc(CN(CC(O)C(F)(F)F)c2cccc(Oc3ccccc3)c2)c1)C(F)(F)F (centres unmarked) [Example 655, 3-[(3-phenoxyphenyl)[[3-(2-hydroxy-3,3,3-trifluoro-n-propoxy)phenyl]methyl]amino]-1,1,1-trifluoro-2-propanol]	3.6 µM	48 µM		
OC(CN(Cc1cccc(OC(F)(F)C(F)F)c1)c1cccc(OC(F)(F)F)c1)C(F)(F)F (centres unmarked) [Example 71]	1.2 µM	36 µM		
OC(CN(Cc1cccc(Br)c1)c1cccc(Oc2ccccc2)c1)C(F)(F)F (centres unmarked) [Example 595B, 3-[(3-phenoxyphenyl)[[3-bromophenyl]methyl]amino]-1,1,1-trifluoro-2-propanol]	4.5 µM	> 100 µM		
OC(CN(Cc1cccc(OC(F)(F)F)c1)c1ccc2c(c1)Cc1ccccc1-2)C(F)(F)F (centres unmarked) [Example 201]	4 µM	110 µM		
OC(CN(Cc1cccc(SC(F)(F)F)c1)c1cccc(Oc2ccccc2)c1)C(F)(F)F (centres unmarked) [compound 216]		24 µM	0.39 µM	
Cc1ccc(COc2cccc(N(Cc3cccc(OC(F)(F)C(F)F)c3)CC(O)C(F)(F)F)c2)cc1 (centres unmarked) [Example 385]	0.42 µM	29 µM		
OC(CN(Cc1cccc(OC(F)(F)C(F)F)c1)c1cccc(OCc2ccc(F)cc2F)c1)C(F)(F)F (centres unmarked) [Example 395]	1.1 µM	10 µM		
OC(CN(Cc1cccc(OC(F)(F)C(F)F)c1)c1cccc(-c2cccc(C(F)(F)F)c2)c1)C(F)(F)F (centres unmarked) [Example 550, 1,1,1-trifluoro-3-[[[3-(1,1,2,2-tetrafluoroethoxy)phenyl]methyl][[3′-(trifluoromethyl)1,1′-biphenyl]-3-yl]amino]-2-propanol]	0.5 µM	30 µM		
OC(CN(Cc1cccc(OC(F)(F)C(F)F)c1)c1ccc(-c2ccccc2)cc1)C(F)(F)F (centres unmarked) [Example 87]	4 µM	60 µM		
COc1cc(OC)cc(Oc2cccc(N(Cc3cccc(OC(F)(F)C(F)F)c3)CC(O)C(F)(F)F)c2)c1 (centres unmarked) [Example 268]	0.58 µM	37 µM		
OC(CN(Cc1cccc(OC(F)(F)C(F)F)c1)c1cccc(N2CCCCC2)c1)C(F)(F)F (centres unmarked) [compound 315]	2.1 µM	> 100 µM		
OC(CN(Cc1cccc(OC(F)(F)C(F)F)c1)c1cccc(Br)c1)C(F)(F)F (centres unmarked) [Example 220B, 3-[(3-bromophenyl)-[[3-(1,1,2,2-tetrafluoroethoxy)phenyl]methyl]amino]-1,1,1-trifluoro-2-propanol]	3 µM	> 100 µM		
COc1cccc(Nc2cccc(N(Cc3cccc(OC(F)(F)C(F)F)c3)CC(O)C(F)(F)F)c2)c1 (centres unmarked) [Example 305]	1.2 µM	76 µM		
OC(CN(Cc1cccc(OC(F)(F)C(F)F)c1)c1cccc(OCc2cccc(F)c2F)c1)C(F)(F)F (centres unmarked) [Example 399]	0.35 µM	3.4 µM		
OC(CN(Cc1ccc(C(F)(F)F)cc1)c1cccc(OC(F)(F)F)c1)C(F)(F)F (centres unmarked) [Example 140]	1.6 µM	80 µM		
OC(CN(Cc1cccc(-c2cccs2)c1)c1cccc(Oc2ccccc2)c1)C(F)(F)F (centres unmarked) [Example 595, 3-[(3-phenoxyphenyl) [[3-(2-thienyl)phenyl]methyl]amino]-1,1,1-trifluoro-2-propanol]	1.1 µM	42 µM		
CC(Oc1cccc(N(Cc2cccc(OC(F)(F)C(F)F)c2)CC(O)C(F)(F)F)c1)c1ccccc1 (centres unmarked) [Example 429]	0.44 µM	4.4 µM		
OC(CN(Cc1cccc(I)c1)c1cccc(OC(F)(F)F)c1)C(F)(F)F (centres unmarked) [Example 322]	3 µM	> 100 µM		
OC(CN(Cc1cccc(OC(F)(F)F)c1)c1cccc(C(F)(F)F)c1)C(F)(F)F (centres unmarked) [Example 42]	7 µM	80 µM		

Structure (SMILES)	IC50 [1, 3]	IC50 [2, 4]	IC50 [1, 5]	IC50 ([2]; IC50, Inhibition of CETP activity in human plasma assay)
OC(CN(Cc1cccc(Oc2cccc(C(F)(F)F)c2)c1)c1cccc(Oc2ccccc2)c1)C(F)(F)F (centres unmarked) [Example 115]	3 µM	> 100 µM		
OC(CN(Cc1cccc(OC(F)(F)F)c1)c1ccc2c(c1)Cc1ccccc1-2)C(F)(F)F (centres unmarked) [compound 699]	1.5 µM	55 µM		
CC(C)(C)c1cccc(Oc2cccc(N(Cc3cccc(OC(F)(F)C(F)F)c3)CC(O)C(F)(F)F)c2)c1 (centres unmarked) [Example 252]		3.9 µM	0.075 µM	
OC(CN(Cc1cccc(OC(F)(F)C(F)F)c1)c1cc(F)ccc1F)C(F)(F)F (centres unmarked) [Example 70]	2 µM	65 µM		
N#Cc1cccc(Nc2cccc(N(Cc3cccc(OC(F)(F)C(F)F)c3)CC(O)C(F)(F)F)c2)c1 (centres unmarked) [Example 302]	2.5 µM	> 100 µM		
OC(CN(Cc1cccc(OC(F)(F)C(F)F)c1)c1cccc(Nc2ccc(F)cc2)c1)C(F)(F)F (centres unmarked) [Example 293]	1 µM	42 µM		
OC(CN(Cc1cccc(OC(F)(F)F)c1)c1ccc2ccccc2c1)C(F)(F)F (centres unmarked) [Example 76]	6 µM	> 200 µM		
OC(CN(Cc1cccc(OC(F)(F)C(F)F)c1)c1cccc(NCc2cccc(C(F)(F)F)c2)c1)C(F)(F)F (centres unmarked) [Example 311]	2.6 µM	> 100 µM		
OC(CN(Cc1cccc(OC(F)(F)C(F)F)c1)c1cccc(OCc2cccc(C(F)(F)F)c2F)c1)C(F)(F)F (centres unmarked) [Example 400]	0.21 µM	6.3 µM		
O=[N+]([O-])c1cccc(-c2cccc(N(Cc3cccc(OC(F)(F)C(F)F)c3)CC(O)C(F)(F)F)c2)c1 (centres unmarked) [Example 556]	0.92 µM	49 µM		
OC(CN(Cc1cccc(OC(F)(F)F)c1)c1ccc2c(c1)OC(F)(F)C(F)(F)O2)C(F)(F)F (centres unmarked) [Example 89]	2.3 µM	60 µM		
OC(CN(Cc1cccc(C(F)(F)F)c1)c1cccc(Oc2ccccc2)c1)C(F)(F)F (centres unmarked) [Example 149]	1.6 µM	> 100 µM		
OC(CN(Cc1ccc(OC(F)(F)F)cc1)c1cccc(Oc2ccccc2)c1)C(F)(F)F (centres unmarked) [Example 63]			3.5 µM	120 µM
CCOc1cccc(N(Cc2cccc(OC(F)(F)F)c2)CC(O)C(F)(F)F)c1 (centres unmarked) [Example 128]	2.4 µM	35 µM		
CCCc1ccc(Nc2cccc(N(Cc3cccc(OC(F)(F)C(F)F)c3)CC(O)C(F)(F)F)c2)cc1 (centres unmarked) [Example 299]	2.3 µM	> 100 µM		
O=[N+]([O-])c1ccccc1Oc1cccc(N(Cc2cccc(OC(F)(F)C(F)F)c2)CC(O)C(F)(F)F)c1 (centres unmarked) [Example 436, 3-[[3-(2-nitrophenoxy)phenyl][[3-(1,1,2,2-tetrafluoroethoxy)phenyl]-methyl]amino]-1,1,1-trifluoro-2-propanol]	0.42 µM	14 µM		
OC(CN(Cc1cccc(OC(F)(F)C(F)F)c1)c1cccc(OCc2cccc(Cl)c2F)c1)C(F)(F)F (centres unmarked) [Example 393]	0.82 µM	5 µM		
OC(CN(Cc1cccc(OC(F)(F)C(F)F)c1)c1cccc(OCc2ccc(C(F)(F)F)cc2C(F)(F)F)c1)C(F)(F)F (centres unmarked) [Example 396]	0.86 µM	10 µM		
